Data set [1] deals with T1, apelin receptor (APJ) (Homo sapiens, UniProt P35414).
T1 sequence (P35414 1-380): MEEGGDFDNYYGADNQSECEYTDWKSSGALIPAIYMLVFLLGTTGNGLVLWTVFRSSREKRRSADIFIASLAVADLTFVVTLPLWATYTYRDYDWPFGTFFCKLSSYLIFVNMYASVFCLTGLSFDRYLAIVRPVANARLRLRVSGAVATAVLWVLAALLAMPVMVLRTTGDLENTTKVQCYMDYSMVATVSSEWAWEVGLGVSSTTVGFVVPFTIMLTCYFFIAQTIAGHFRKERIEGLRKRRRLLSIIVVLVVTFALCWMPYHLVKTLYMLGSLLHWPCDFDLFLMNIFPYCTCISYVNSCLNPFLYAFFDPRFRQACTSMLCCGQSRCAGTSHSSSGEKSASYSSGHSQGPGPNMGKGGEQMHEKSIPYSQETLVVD
Nature of the data set: in vitro activity as apelin agonists (methods of Giddings et al.; Apelin-13 positive control). In kind it is cell-based. The following applies: apelin agonist activity, average; read-out: EC50 (nM) Ave. The source says:
The compounds above were studied for their in vitro activity as apelin agonists using the methods described by Giddings et al. Giddings et al., 2010 Int J High Thro Screen. 1:39-47, the contents of which are hereby incorporated by reference in its entirety. The methods described in Giddings et al. were used as described and Apelin-13 was a positive control.

The nature of data set [2]: Cellular uptake assay: Caco-2 monolayer permeability (A-to-B / B-to-A). The data set is classed as in vitro ADME. The following applies: human, Papp (B-to-A)/Papp (A-to-B), Caco-2, 5 μM, pH 7.4. Here is the method:
Caco-2 cells (clone C2BBe1) were obtained from American Type Culture Collection (Manassas, VA). Cell monolayers were grown to confluence on collagen-coated, microporous, polycarbonate membranes in 12-well Costar Transwell plates. Details of the plates and their certification are shown below. The permeability assay buffer was Hanks' balanced salt solution (HBSS) containing 10 mM HEPES and 15 mM glucose at a pH of 7.4. The buffer in the receiver chamber also contained 1% bovine serum albumin. The dosing solution concentration was 5 μM for each test article in the assay buffer. Cell monolayers were dosed on the apical side (A-to-B) or basolateral side (B-to-A) and incubated at 37° C. with 5% CO2 in a humidified incubator. Samples were taken from the donor and receiver chambers at 120 minutes. Each determination was performed in duplicate. After the experiment, all assay buffers were removed from the inserts. Cell monolayers were dosed with blank 500 μM lucifer yellow on the A-to-B side and blank HBSS on the B-to-A side and incubated at 37° C. Samples were taken from the B-to-A side at 60 minutes. The flux of lucifer yellow was measured for each monolayer to ensure no damage was inflicted to the cell monolayers during the flux period. All samples were analyzed by LC-MS/MS using electrospray ionization. The apparent permeability (Papp) and percent recovery were calculated as follows: Papp=(dCr/dt)×Vr/(A×CA) (1) Percent Recovery=100×((Vr×Cr^final)+(Vd×Cd^final))/(Vd×CN) (2)
Where, dCr/dt is the slope of the cumulative concentration in the receiver compartment versus time in M s^−1;
Vr is the volume of the receiver compartment in cm^3;
Vd is the volume of the donor compartment in cm^3;
A is the area of the insert (1.13 cm^2 for 12-well Transwell);
CA is the average of the nominal dosing concentration and the measured 120-minute donor concentration in μM;
CN is the nominal concentration of the dosing solution in M;
Cr^final is the cumulative receiver concentration in M at the end of the incubation period;
Cd^final is the concentration of the donor in μM at the end of the incubation period.
Efflux ratio (ER) is defined as Papp (B-to-A)/Papp (A-to-B).
Absorption Potential Classification:
Papp (A-to-B)<1.0×10^−6 cm/s: Low
Papp (A-to-B) ≥1.0×10^−6 cm/s: High
Significant Efflux is defined as: ER≥2.0 and Papp (B-to-A)≥1.0×10^−6 cm/
(Caco-2 cells form a polarised layer with tight junctions and transporters.)

Regarding `O=C(O)C[C@H](CCN1CCCC(F)(F)C1)NC(=O)c1nc(C2CCCC2)n(-c2ccccc2C(F)(F)F)n1` [compound 461, (3S)-3-({5-cyclopentyl-1-[2-(trifluoromethyl)phenyl]-1H-1,2,4-triazol-3-yl}formamido)-5-(3,3-difluoropiperidin-1-yl)pentanoic acid], the EC50 (usually the concentration giving half of the maximal effect) in data set [1] is 46 nM. For the same molecule, the efflux ratio (usually the permeability from basolateral to apical divided by that in the opposite direction, in the common usage) at 120 min, 5 μM in data set [2] stood at 7.
The corresponding values for `O=C(C[C@H](CCN1CCCC(F)(F)C1)NC(=O)c1cn(-c2ccccc2C(F)(F)F)c(C2CCCC2)n1)NC1CCC1` [compound 472, (3S)-N-cyclobutyl-3-({2-cyclopentyl-1-[2-(trifluoromethyl)phenyl]-1H-imidazol-4-yl}formamido)-5-(3,3-difluoropiperidin-1-yl)pentanamide] are 15 nM and 4.
For `O=C(C[C@H](CCN1CCCC(F)(F)C1)NC(=O)c1nc(-c2ncccc2C(F)(F)F)n(C2CCCC2)n1)NC1CCC1` [compound 530, (3S)-N-cyclobutyl-3-({1-cyclopentyl-5-[3-(trifluoromethyl)pyridin-2-yl]-1H-1,2,4-triazol-3-yl}formamido)-5-(3,3-difluoropiperidin-1-yl)pentanamide], in that order: 7.5 nM and 46.
For the molecule `O=C(N[C@@H](CCN1CCCC(F)(F)C1)Cc1nnn[nH]1)c1nc(C2CCCC2)n(-c2ccccc2C(F)(F)F)n1` [compound 616, 5-cyclopentyl-N-[(2S)-4-(3,3-difluoropiperidin-1-yl)-1-(1H-1,2,3,4-tetrazol-5-yl)butan-2-yl]-1-[2-(trifluoromethyl)phenyl]-1H-1,2,4-triazole-3-carboxamide], the EC50 in data set [1] is 9 nM. In data set [2], the efflux ratio at 120 min, 5 μM is 17.
